Assay [1] relates to human pancreatic cancer cell line MiaPaCa2 (ATCC CRL-1420). Put plainly: Cell growth assay (CellTiterGlo, 72 hours). To be noted: for IC50: MIA PaCa-2, MiaPaCa2 cells, 72 hours, read-out: IC50 MiaPaCa; for inhibition at 50 µM: MIA PaCa-2, at 50 μM, read-out: Inhibition of MiaPaCa growth at indicated concentration. Format: cell-based. In a few lines:
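MiaPaCa2 cells (10^3/well) seeded in supplemented DMEM overnight, then exposed in quadruplicate to compound at 100 down to 0.1 μM for 72 h at 37° C. Growth read by CellTiterGlo luminescence, medium-only background subtracted, normalised to untreated cells; IC50 = concentration reducing growth to 50%.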
For orientation: ATP-based viability assays read luminescence as a measure of living cells.

For a further assay, the target named is T1, MNK1 (Homo sapiens, UniProt Q9BUB5).
T1 construct: purchased Life Technologies or Carna Biosciences PV6023 or 02-145; host or cells: baculovirus infected insect cells
T1 sequence (Q9BUB5 whole entry): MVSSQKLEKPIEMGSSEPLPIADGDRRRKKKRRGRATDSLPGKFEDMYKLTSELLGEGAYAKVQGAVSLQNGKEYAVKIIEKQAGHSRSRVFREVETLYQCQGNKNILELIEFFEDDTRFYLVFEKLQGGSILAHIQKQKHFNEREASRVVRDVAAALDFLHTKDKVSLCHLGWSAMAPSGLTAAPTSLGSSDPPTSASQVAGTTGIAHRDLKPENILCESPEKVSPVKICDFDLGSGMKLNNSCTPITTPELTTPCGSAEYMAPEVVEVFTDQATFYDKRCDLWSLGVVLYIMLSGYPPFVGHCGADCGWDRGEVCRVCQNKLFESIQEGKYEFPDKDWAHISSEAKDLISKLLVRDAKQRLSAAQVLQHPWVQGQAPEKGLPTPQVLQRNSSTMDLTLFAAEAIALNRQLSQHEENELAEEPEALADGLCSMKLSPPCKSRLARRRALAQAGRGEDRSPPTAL
Briefly: MNK inhibition assay (Z-Lyte kinase assay, Ser/Thr 7 peptide). Format: biochemical. To be noted: for IC50: recombinant GST-MNK1, 3 hours at 31° C. In a few lines:
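Recombinant GST-MNK1 from baculovirus-infected insect cells, Z-Lyte Ser/Thr 7 peptide, enzyme set for ~30% phosphorylation in buffer-only wells; 3 hours at 31° C. Compounds at 50–10000 nM (potent ones down to 0.5 nM), at least duplicate. IC50 from % substrate phosphorylation versus buffer-only wells, fluorescence read-out.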

Usually IC50 stands for the midpoint of a concentration-inhibition curve. With `Cc1ccc(-c2cncc3ccc(CN4CCC(N)CC4)cc23)o1` [Example 167, 1-[[4-(5-methyl-2-furyl)-6-isoquinolyl]methyl]piperidin-4-amine], the IC50 turned out to be 0.8 µM in assay [1] and 1.04 µM at MNK1.
The matching figures for `NC1CCN(Cc2ccc3cncc(-c4ccc5[nH]ccc5c4)c3c2)CC1` [Example 168]: 12.4 µM and 0.76 µM.
The matching figures for `NC1CCN(Cc2ccc3cncc(-c4ccc5cc[nH]c5c4)c3c2)CC1` [Example 169]: 10.3 µM and 0.247 µM.
The matching figures for `NC1CCN(Cc2ccc3cncc(-c4cc5ccccc5s4)c3c2)CC1` [Example 170]: 2.6 µM and 0.361 µM.
In the case of `NC1CCN(Cc2ccc3cncc(-c4ccc(Cl)s4)c3c2)CC1` [Example 171], the figures for the IC50 (in assay [1]; at MNK1) were 11.2 µM and 0.189 µM, respectively.
Turning to `NC1CCN(Cc2ccc3cncc(-c4ccc5occc5c4)c3c2)CC1` [Example 172], the 50% inhibitory concentration (IC50) amounted to 11.9 µM in assay [1] and 0.27 µM at MNK1.
As to `NC1CCN(Cc2ccc3cncc(-c4cnc5ccccc5c4)c3c2)CC1` [Example 173], the IC50 in assay [1] was determined as 9.87 µM; on MNK1, 0.958 µM.
The matching figures for `NC1CCN(Cc2ccc3cncc(-c4ccc5ccccc5c4)c3c2)CC1` [Example 174]: 4.7 µM and 0.465 µM.
The matching figures for `COc1ccc2oc(-c3cncc4ccc(CN5CCC(N)CC5)cc34)cc2c1` [Example 175]: 7.72 µM and 1.07 µM.
The matching figures for `NC1CCN(Cc2ccc3cncc(-c4ccc5ccccc5n4)c3c2)CC1` [Example 176, 1-[[4-(2-Quinolyl)-6-isoquinolyl]methyl]piperidin-4-amine]: 29 µM and 3.7 µM.
Regarding `NC1CCN(Cc2ccc3cncc(-c4ccco4)c3c2)CC1` [Example 177, 1-[[4-(2-Furyl)-6-isoquinolyl]methyl]piperidin-4-amine], the 50% inhibitory concentration (IC50) in assay [1] was determined as 3.65 µM; at MNK1 it was 0.125 µM.
The matching figures for `NC1CCN(Cc2ccc3cncc(-c4cccs4)c3c2)CC1` [Example 178]: 4.98 µM and 0.154 µM.
`NC1CCN(Cc2ccc3cncc(-c4ccoc4)c3c2)CC1` [Example 179]: the results for the half-inhibitory concentration (IC50) (in assay [1]; on MNK1) were 4.97 µM and 0.276 µM, respectively.
The matching figures for `NC1CCN(Cc2ccc3cncc(-c4ccsc4)c3c2)CC1` [Example 180]: 12.1 µM and 0.177 µM.
The matching figures for `NC1CCN(Cc2ccc3cncc(-c4ccc(CO)cc4)c3c2)CC1` [Example 181]: 22.8 µM and 0.522 µM.
The matching figures for `NC1CCN(Cc2ccc3cncc(-c4cccc(CO)c4)c3c2)CC1` [Example 182]: 38 µM and 1.18 µM.
In the case of `NCc1ccc(-c2cncc3ccc(CN4CCC(N)CC4)cc23)cc1` [Example 183], the IC50 was found to be 8.64 µM in assay [1] and 0.306 µM on MNK1.
`NCc1cccc(-c2cncc3ccc(CN4CCC(N)CC4)cc23)c1` [Example 184]: in assay [1], the IC50 was 7.89 µM. For the same compound, the inhibition at 1 µM at MNK1 (at 1 μM, read-out: Inhibition of MNK1 activity at indicated concentration) is 35%.
Take `CC(=O)c1ccc(-c2cncc3ccc(CN4CCC(N)CC4)cc23)cc1` [Example 185]: the IC50 in assay [1] was found to be 22 µM; at MNK1, 0.849 µM.
The matching figures for `CC(=O)c1cccc(-c2cncc3ccc(CN4CCC(N)CC4)cc23)c1` [Example 186]: 24 µM and 1.24 µM.
Regarding `NC1CCN(Cc2ccc3cncc(-c4cccc(O)c4)c3c2)CC1` [Example 187], the IC50 was 13 µM in assay [1] and 0.266 µM on MNK1.
The matching figures for `NC1CCN(Cc2ccc3cncc(-c4cc5cc(Cl)ccc5o4)c3c2)CC1` [Example 188]: 5.63 µM and 0.34 µM.
The matching figures for `c1ccc2oc(-c3cncc4ccc(Cn5ccc6cnccc65)cc34)cc2c1` [Example 189, 4-(Benzofuran-2-yl)-6-(pyrrolo[3,2-c]pyridin-1-ylmethyl)isoquinoline]: 8.39 µM and 0.011 µM.
The matching figures for `Nc1cc(CNc2ccc3cncc(-c4cc5ccccc5o4)c3c2)ccn1` [Example 190, N-[(2-Amino-4-pyridyl)methyl]-4-(benzofuran-2-yl)isoquinolin-6-amine]: 7.44 µM and 0.087 µM.
For `c1ccc2oc(-c3cncc4ccc(Cn5ccc6ccncc65)cc34)cc2c1` [Example 191, 4-(Benzofuran-2-yl)-6-(pryrrolo[2,3-c]pyridin-1-ylmethyl)isoquinoline], the results for the IC50 (in assay [1]; at MNK1) were 19 µM and 0.437 µM, respectively.
In the case of `Nc1ccc2c(ccn2Cc2ccc3cncc(-c4cc5ccccc5o4)c3c2)c1` [Example 192, 1-[[4-(Benzofuran-2-yl)-6-isoquinolyl]methyl]indol-5-amine], the figures for the IC50 (in assay [1]; at MNK1) were 26 µM and 1.55 µM, respectively.
`NC1CCN(Cc2ccc3cncc(-c4ccc5cnccc5c4)c3c2)CC1` [Example 193]: the IC50 stood at 11.5 µM in assay [1] and 1.05 µM at MNK1.
Turning to `NC1CCN(Cc2ccc3cncc(-c4ccc5ccncc5c4)c3c2)CC1` [Example 194], the values for the IC50 (in assay [1]; at MNK1) were 16.3 µM and 0.797 µM, respectively.
`NC1CCN(Cc2ccc3cncc(-c4ccc5ncccc5c4)c3c2)CC1` [Example 195]: the IC50 in assay [1] worked out at 16.2 µM; at MNK1, 0.797 µM.
The matching figures for `NC1CCN(Cc2ccc3cncc(-c4ccc5cccnc5c4)c3c2)CC1` [Example 196]: 20.4 µM and 0.331 µM.
The matching figures for `NC1CCN(Cc2ccc3cncc(-c4ccc(Cl)cc4Cl)c3c2)CC1` [Example 197]: 9.86 µM and 1.39 µM.
Turning to `COc1cccc(-c2cncc3ccc(CN4CCC(N)CC4)cc23)c1` [Example 198], the IC50 in assay [1] came out at 11.1 µM; on MNK1, 0.882 µM.
The matching figures for `NC1CCN(Cc2ccc3cncc(-c4ccc5c(c4)OCO5)c3c2)CC1` [Example 199]: 8.67 µM and 0.212 µM.
The matching figures for `NC1CCN(Cc2ccc3cncc(-c4ccc(Cl)c(Cl)c4)c3c2)CC1` [Example 200]: 16.4 µM and 0.245 µM.
The matching figures for `COc1ccc(-c2cncc3ccc(CN4CCC(N)CC4)cc23)cn1` [Example 201]: 25.2 µM and 0.803 µM.
Consider `COc1ccc(-c2cncc3ccc(CN4CCC(N)CC4)cc23)cc1OC` [Example 202], for which the IC50 in assay [1] was determined as 19.4 µM; at MNK1, 1.27 µM.
`Cn1cc(-c2cncc3ccc(CN4CCC(N)CC4)cc23)cn1` [Example 203]: the inhibition at 50 µM in assay [1] came out at 48%. In addition, at MNK1, the IC50 worked out at 0.624 µM.
As for `NC1CCN(Cc2ccc3cncc(-c4cn[nH]c4)c3c2)CC1` [Example 204], in assay [1], the inhibition at 50 µM was 55%. In addition, the IC50 on MNK1 was determined as 4.7 µM.
With `N[C@@H]1CCN(Cc2ccc3cncc(-c4cc5ccccc5o4)c3c2)C[C@H]1F` [Example 205], the IC50 in assay [1] is 4.52 µM; at MNK1, 2.15 µM.
Regarding `N[C@@H]1CCN(Cc2ccc3cncc(-c4cc5ccccc5o4)c3c2)C[C@@H]1F` [Example 206], the IC50 in assay [1] was found to be 8.06 µM; at MNK1 it was 0.017 µM.
The matching figures for `NC1CCN(Cc2ccc3cncc(-c4cc5ccccc5o4)c3c2)c2ccccc21` (stereo not shown) [Example 207]: 8.04 µM and 0.606 µM.
